Source: patent US5578574A, “Antithrombotic agents” (Eli Lilly and Company, priority 1995, dated 1996)
Square brackets hold non-standard residues; d marks the D form. Peptide text beside a SMILES is read from it. ξ: configuration not given here. dPip = O=C(O)[C@H]1CCCCN1; dThz = O=C(O)[C@H]1CSCN1; ξAze = O=C(O)C1CCN1

Columns and labels:
human thrombin = human thrombin (Homo sapiens, UniProt P00734); assay: Human thrombin inhibition (amidase activity, chromogenic substrate; Kass); conditions: purified human thrombin, mean over a range of concentrations
Protocol: Standard curves are constructed by plotting free thrombin concentration against hydrolysis rate. […] The amount of free inhibitor in each assay is calculated by subtracting the number of moles of bound thrombin from the number of moles of added inhibitor (test compound).
Kass is calculated for a range of concentrations of test compounds and the mean value reported in units of liter per mole.

[1] = Index of Bioavailability (plasma thrombin time AUC, oral vs i.v.); format: in vivo; conditions: rats; dose-adjusted AUC of plasma TT time course, p.o. vs i.v. bolus
Text: Assays are done in duplicate and averaged.
Each sample population represents alternating sequential time points.

thrombin = conditions: Bajusz et al., J. Med. Chem., 33, 1729-1735 (1990); cited from earlier work
[2] = Pharmacokinetic model in dogs, single oral dose; format: in vivo, dogs (Beagles); conditions: single 2 mg/kg oral dose
Protocol: Male dogs (Beagles; 18 months-2 years; 12-13 kg, Marshall Farms, North Rose, N.Y. 14516) are fasted overnight and fed Purina certified Prescription Diet (Purina Mills, St. Louis, Miss.) 240 minutes after dosing. Water is available ad libitum. The room temperature is maintained between 66°-74° F.; 45-50 percent relative humidity; and lighted from 0600-1800 hours.
Test compound is formulated immediately prior to dosing by dissolving in sterile 0.9 percent saline to a 5 mg/ml preparation. Dogs are given a single 2 mg/kg dose of test compound by oral garage. Blood samples (4.5 ml) are taken from the cephalic vein at 0.25, 0.5, 0.75, 1,2,3,4 and 6 hours after dosing. Samples are collected in citrated Vacutainer tubes and kept on ice prior to reduction to plasma by centrifugation. Plasma samples are derivatized with dinitrophenylhydrazine and analyzed by HPLC (Zorbax SB-C8 column) eluting with methanol/500 mM sodium acetate adjusted to pH7 with phosphoric acid (60:40, v/v). Plasma concentration of test compound is recorded and used to calculate the pharmacokinetic parameters: elimination rate constant, Ke; total clearance, Clt; volume of distribution, VD; time of maximum plasma test compound concentration, Tmax; maximum concentration of test compound of Tmax, Cmax; plasma half-life, t0.5; and area under the curve, A.U.C.; fraction of test compound absorbed, F.

[3] = Template Bleeding Time assay (gingival); format: in vivo, dog; conditions: 0.25, 0.50 and 1.0 mg/kg.hr; over a 240 minute time
Protocol: Whole blood cell counts, hemoglobin, and hematocrit values are determined on a 40-μl sample of citrated (3.8 percent) blood (1 part citrate:9 parts blood) with a hematology analyzer (Cell-Dyn 900, Sequoia-Turner. Mount View, Calif., U.S.A.). Gingival template bleeding times are determined with a Simplate II bleeding time device (Organon Teknika Durham, N.C., U.S.A.). The device is used to make 2 horizontal incisions in the gingiva of either the upper or lower left jaw of the dog. Each incision is 3 mm wide×2 mm deep. The incisions are made, and a stopwatch is used to determine how long bleeding occurs. A cotton swab is used to soak up the blood as it oozes from the incision. Template bleeding time is the time from incision to stoppage of bleeding. Bleeding times are taken just before administration of test compound (0 min), 60 min into infusion, at conclusion of administration of the test compound (120 min), and at the end of the experiment.
All data are analyzed by one-way analysis of variance (ANOVA) followed by Student-Neuman-Kuels post hoc t test to determine the level of significance. Repeated-measures ANOVA are used to determine significant differences between time points during the experiments. Values are determined to be statistically different at least at the level of p<0.05. All values are mean ±SEM. […]

[4] = early clinical studies, Simoons et al.; cited from earlier work

| Molecule | Kass × 10^6 (l/mole) (human thrombin) | Percent Relative Activity (Index of Bioavailability) [1] [%] | further results |
| --- | --- | --- | --- |
| Cl.Cl.N=C(N)NCCC[C@@H](C=O)NC(=O)[C@@H]1CCCN1C(=O)C1CNCCN1 (stereo partly drawn) [Example 9, D,L-Piperazin-2-oyl-L-Prolinyl-L-Arginine Aldehyde Dihydrochloride] | 121 × 10^6 l/mole | 19 | – |
| Cl.Cl.N=C(N)NCCC[C@@H](C=O)NC(=O)[C@@H]1CCCN1C(=O)C1NCCCC2CCCCC21 (mixture of isomers) [Example 8, DL-cis-3-aza-bicyclo[5.4.0]undecanyl-2-carbonyl-L-prolinyl-L-arginine aldehyde dihydrochloride] | 595 × 10^6 l/mole | 43 | – |
| N=C(N)NCCC[C@@H](C=O)NC(=O)[C@@H]1CCCN1C(=O)[C@H](N)Cc1ccccc1 [D-Phe-Pro-Arg-H] | – | – | direct inhibition of thrombin (thrombin): potent direct inhibition of thrombin |
| Cl.Cl.N=C(N)NCCC[C@@H](C=O)NC(=O)[C@@H]1CCCN1C(=O)[C@H]1CCCCN1 [Example 1, D-Homoprolinyl-L-Prolinyl-L-Arginine Aldehyde Dihydrochloride] (H-[dPip]-Pro-Arg-aldehyde) | 46 × 10^6 l/mole | 38 | A.U.C. o-infinity [2]: 4651 ng·h/mL; Cmax [2]: 1676 ng/mL; Ke (elimination rate constant) [2]: 0.0104 min⁻¹; Tmax [2]: 1 to 2 h; VD/F (volume of distribution) [2]: 0.729 L/kg; t0.5 (plasma half-life) [2]: 1.12 h; effect on template bleeding time [3]: no significant effect on template bleeding time |
| CN[C@H](Cc1ccccc1)C(=O)N1CCC[C@H]1C(=O)N[C@H](C=O)CCCNC(=N)N [D-MePhe-Pro-Arg-H] | – | – | direct inhibition of thrombin (thrombin): potent direct inhibition of thrombin |
| Cl.Cl.Cl.N=C(N)NCCC[C@@H](C=O)NC(=O)[C@@H]1CCCN1C(=O)[C@H]1C[C@H](Sc2ccccc2)CN1.O.O.O [Example 14, trans-4-phenylthio-D-prolinyl-L-prolinyl-L-arginine aldehyde trihydrochloride trihydrate] | 37 × 10^6 l/mole | – | – |
| D-Prolinyl-L-Prolinyl-L-Arginine Aldehyde Dihydrochloride [Example 2] | 12 × 10^6 l/mole | 36 | – |
| Cl.Cl.Cl.N=C(N)NCCC[C@@H](C=O)NC(=O)[C@@H]1CCCN1C(=O)[C@H]1C[C@@H](Oc2ccccc2)CN1.O (relative stereo) [Example 12, D-Cis-(4-phenoxy) Prolinyl-L-Prolinyl-L-Arginine Aldehyde Trihydrochloride Monohydrate] | 25 × 10^6 l/mole | 16 | – |
| CC(C)C1N[C@@H](C(=O)N2CCC[C@H]2C(=O)N[C@H](C=O)CCCNC(=N)N)C(C)(C)S1.Cl.Cl (stereo partly drawn) [Example 5, D-2-Isopropyl-5,5-Dimethylthiazolidinyl-4-Carbonyl-L-Prolinyl-L-Arginine Aldehyde Dihydrochloride] | 4 × 10^6 l/mole | – | – |
| Cl.Cl.N=C(N)NCCC[C@@H](C=O)NC(=O)[C@@H]1CCCN1C(=O)[C@H]1CSCN1 [Example 4, D-Thiazolidinyl-4-Carbonyl-L-Prolinyl-L-Arginine Aldehyde Dihydrochloride] (H-[dThz]-Pro-Arg-aldehyde) | 5 × 10^6 l/mole | 16 | – |
| Cl.Cl.Cl.N=C(N)NCCC[C@@H](C=O)NC(=O)[C@@H]1CCCN1C(=O)[C@H]1C[C@H](Oc2ccc3ccccc3c2)CN1.O [Example 6, trans-4-(2-Naphthyloxy)-D-Prolinyl-L-Prolinyl-L-Arginine Aldehyde Trihydrochloride Monohydrate] | 21 × 10^6 l/mole | – | – |
| Cl.Cl.N=C(N)NCCC[C@@H](C=O)NC(=O)C1CCN1C(=O)[C@H]1CCCCN1 (stereo partly drawn) [Example 3, D-Homoprolinyl-L-Azetidinyl-L-Arginine Aldehyde Dihydrochloride] (H-[dPip]-[ξAze]-Arg-aldehyde) | 45 × 10^6 l/mole | 32 | – |
| CN[C@H](Cc1ccccc1)C(=O)N1CCC[C@H]1C(=O)N[C@H](C=O)CCCNC(=N)N.O=S(=O)(O)O [D-MePhe-Pro-Arg-H sulfate] | – | – | anticoagulant in man [4]: is an anticoagulant in man |
| Cl.Cl.N=C(N)NCCC[C@@H](C=O)NC(=O)[C@@H]1CCCN1C(=O)C1NCCS1 (stereo partly drawn) [Example 10, D,L-Thiazolidinyl-2-carbonyl-L-prolinyl-L-arginine aldehyde dihydrochloride] | 27 × 10^6 l/mole | 5 | – |
| CC(C)(C)OC(=O)N[C@H](Cc1ccccc1)C(=O)N1CCC[C@H]1C(=O)N[C@H](C=O)CCCNC(=N)N [Boc-D-Phe-Pro-Arg-H] | – | – | direct inhibition of thrombin (thrombin): potent direct inhibition of thrombin |
